Assays:
[1] = test system: WT, HET and KI R217A mice and parent strains; experiment: Vogel water-lick conflict; assay type: in vivo, mouse; conditions: for minimally effective dose (MED), Vogel: IP (doses tested in mg/kg)
Protocol: Two strains used to generate the mutant mice, C57BU6J (Jackson Laboratories), and 129S6/SvEV (Taconic Farms), were also evaluated. Albino or C57BL/6J-Tyr were also included in the experiments for comparison purposes. Male C57BL/6J (Jackson Laboratories), and 129S6/SvEV (Taconic Farms) mice were received at 8 weeks old in quantities sufficient for each study to be completed in one experiment. Parent strains were housed one week prior to testing. All animals were housed in a temperature and humidity controlled room under a 12L: 12D schedule (lights on @06:00 h). All mice were housed in isolators (3-5/cage) with the exception of C57BU6J mice that were housed on wire racks (12/cage).
On the side of each chamber (1.5 in. above the floor) a module optical lickometer was mounted. The lickometer was used to measure licking from a drink tube attached to a water bottle mounted on the exterior of the chamber. A photo beam was piped via glass rods across a gap at the end of the drink tube. The subject's tongue breaks the beam when it drinks from the tube and each lick was automatically recorded. […] The reduced chamber space limited the animal's activity and directed behavior towards the drink tube during a 10-minute session. The front and back of the test chamber was made of clear Plexiglas. The front door was covered to reduce distractions from inside the test room. The back of the test chamber faced a wall, away from the flow of traffic in the testing room, and remained uncovered to provide the opportunity for observations. Shock was delivered between the grid floor and the drink tube using a (Coulbourn) programmable universal shocker for a duration of one second, but terminated immediately when contact between the animal and drink tube was broken.
PROCEDURE: On day one, after 24 hours of water deprivation, experimental subjects were placed in the test chambers and allowed to drink unpunished for a 10-minute training session. Mice were required to complete a 100-150 lick criteria during the training session. Subjects that completed the training criteria prior to the end of the 10-minute session were removed so that drinking was restricted in all subjects to 25% of their total daily intake. […] Immediately after the day one session mice were returned to their home cages and deprived of water and food for an additional 24 hours. On test day two, mice were dosed by intraperitoneal (IP) injection with vehicle or test compound. After a 60 or 120-minute absorption period mice were placed into the test chambers for a 10-minute test session. During the test, shock was delivered on a fixed ratio (FR) 10 schedule. Therefore, after every 10th lick the subject received a mild shock. […] A low number of shock episodes accepted reflects anxiety-related behavior. Standard anxiolytic drugs produce effects that allow mice to overcome the behavioral inhibition and drink despite the shock. […] All data were analyzed using a one-way ANOVA/Dunn's Method.
DRUGS: Pregabalin was dissolved in physiological saline for all experiments. The positive control diazepam was suspended in 2% cremophor in physiological saline. All drugs were dosed in a volume of 10 mL/kg.
C57BL/6J mice were tested at 0.4 mA, C57BL/6J-Tyr mice were tested at 0.1 mA and 129S6/SvEV mice were tested at 0.6 mA. Each dose-response study included a no-shock vehicle control group directly compared to the concurrent vehicle punished-responding group to evaluate the suppression of drinking. […] For all experiments, sedation was noted when both symptoms of ataxia (unsteady gait) and a reduced response to handling were observed after dosing and described as mild, moderate or severe.
WT mice were tested at 0.1 mA, HET mice were tested at 0.4 mA and KI mice were tested at 0.7 InA. Each experiment included a no-shock vehicle control group for direct comparison to the concurrent vehicle punished-responding group to determine percent suppression of drinking.

[2] = test system: R217A mutant lines and background strain mice; experiment: Maximal electroshock procedure (MES); assay type: in vivo, mouse; conditions: all background strains, mutant, heterozygous mutant and wildtype (all lines); FIG. 9
Protocol: WT mice were tested at 0.1 mA, HET mice were tested at 0.4 mA and KI mice were tested at 0.7 InA. Each experiment included a no-shock vehicle control group for direct comparison to the concurrent vehicle punished-responding group to determine percent suppression of drinking. […] Sedation was noted by the observer as previously described. […] Electroshock in mice was delivered using corneal electrodes with varied electroshock intensity. Current was delivered (60 Hz sinusoidal current, 11 to 17 mA baseline to peak vs. 50 mA for 0.2 s) using a constant-current stimulator (Wahlquist Instruments, Salt Lake City, Utah). The intensities of current necessary to produce tonic extensor seizures for each mouse strain and mutant lines in all of the mice were determined. These currents were then used for further testing of mice with pregabalin. All dose-response testing was conducted at the previously determined time of peak drug effect. Groups of 10 mice each were give various intraperitoneal doses of pregabalin dissolved in 0.9% saline, diazepam (veh) or phenytoin and given in a volume of 10 ml/kg of body weight. […] At least four groups of mice and each animal was employed once. The animals, pretreated with different doses of the tested drugs, were challenged with one electroshock at previously determined times of peak drug effect (pregabalin: 120 min; diazepam: 60 min; phenytoin; 60 min)

[3] = test system: α2/δ1 in mouse brain membranes; experiment: 3H gabapentin binding to whole mouse brain membranes, R217A mutant vs wildtype; conditions: R217A mutant mouse in comparison to wildtype mice; tracer 3H gabapentin; FIG. 3
Protocol: Membranes were prepared from whole mouse brains. […] Total binding was determined in the absence of competitor. Non-specific binding was determined in the presence of 10 μM unlabeled pregabalin.

Compound	minimally effective dose (MED), Vogel ([1]; 129S6/SvEv, shock 0.6 mA)	minimally effective dose (MED), Vogel ([1]; C57BL/6J, shock 0.4 mA)	minimally effective dose (MED), Vogel ([1]; C57 albino, shock 0.1 mA)	minimally effective dose (MED), Vogel ([1]; Hets, shock 0.4 mA)	minimally effective dose (MED), Vogel ([1]; Knockins, shock 0.7 mA)	anxiolytic-like effect / punished licking, Vogel ([1]; R217A knockins (homozygous))	minimally effective dose (MED), Vogel ([1]; Wild Type, shock 0.1 mA)	responsiveness to anticonvulsant effects [2]	gabapentin binding to brain membranes [3]
CN1C(=O)CN=C(c2ccccc2)c2cc(Cl)ccc21 [diazepam]	inactive	3.2	3.2	3.2	inactive	Diazepam (+ control) failed to produce an anxiolytic-like effect in R217A knockins. Data suggests 129S6-parent strain's genotype may be responsible for pharmacological profile of diazepam	3.2	fully responsive	–
O=C1NC(=O)C(c2ccccc2)(c2ccccc2)N1 [phenytoin]	–	–	–	–	–	–	–	fully responsive	–
NCC1(CC(=O)O)CCCCC1 [gabapentin, 1-(aminomethyl)cyclohexaneacetic acid]	–	–	–	–	–	–	–	–	reduced, or greatly abolished

Source: patent US20050044581A1, “Animals and cells containing a mutated alpha2/omega1 gene” (priority 2003, published 2005)
